Patent US5580865A, “2,2-disubstituted cephem sulphones” (Farmitalia Carlo Erba S.r.l., priority 1992, dated 1996)

Target: T1, human leukocyte elastase (HLE) (Homo sapiens, UniProt P08246)
T1 construct: purchased Calbiochem
T1 sequence (P08246 30-247 limits assumed): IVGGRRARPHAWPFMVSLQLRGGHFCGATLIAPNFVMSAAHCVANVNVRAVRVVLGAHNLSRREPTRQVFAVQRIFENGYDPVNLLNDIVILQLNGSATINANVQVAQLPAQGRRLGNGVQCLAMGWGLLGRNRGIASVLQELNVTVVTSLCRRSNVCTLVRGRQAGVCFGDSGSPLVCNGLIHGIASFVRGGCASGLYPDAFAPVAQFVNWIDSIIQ
Assay: Kinetic parameters of HLE inhibition (fluorogenic substrate, steady-state KI^ss and K5/KI)
Format: biochemical
Conditions: HLE (Calbiochem), 37° C., pH 7.4 phosphate buffer, 1% DMSO, 1% MeCN; for kinact/KI: read-out: K5 /KI (rate of formation of the HLE-inhibitor complex); for Ki: read-out: KI^ss (apparent dissociation constant of the HLE-inhibitor complex at steady state)
Procedure: Kinetic parameters of HLE (Calbiochem) were determined at 37° C., 0.027M pH 7.4 phosphate buffer, 1% DMSO, 1% MeCN, NaCl (I=0.15), by monitoring the release of 7-amino-4-methylcoumarin (fluorescence detection) from N-methoxysuccinyl-alanyl-prolyl-valyl-7-amido-4-methylcoumarin as the substrate, according to the equations: [formula] wherein [P], [I], [S]=product, inhibitor, and substrate concentration
Km =Michaelis constant for the enzyme substrate pair (independently determined under the same experimental conditions)

SMILES	kinact/KI	Ki
CO[C@H]1C(=O)N2C(C(=O)C(C)(C)C)=C(C)C(Cc3ccc([N+](=O)[O-])cc3)(Sc3nnnn3C)S(=O)(=O)[C@H]12 (stereo partly drawn) [Compound 6, 4-tert-Butylcarbonyl-7α-methoxy-3-methyl-2-(1-methyl-1,2,3,4-tetrazol-5-yl)thio-2-(4-nitrobenzyl)-3-cephem 1,1-dioxide]	600000 M⁻¹ s⁻¹	1 nM
CO[C@H]1C(=O)N2C(C(=O)C(C)(C)C)=C(C)C(C)(Sc3nnnn3C)S(=O)(=O)[C@H]12 (stereo partly drawn) [Compound 5, 4-tert-Butylcarbonyl-2,3-dimethyl-7α-methoxy-2-(1-methyl-1,2,3,4-tetrazol-5-yl)thio-3-cephem 1,1-dioxide]	570000 M⁻¹ s⁻¹	1.9 nM
COc1nn(C)c(SC2(C)C(C)=C(C(=O)C(C)(C)C)N3C(=O)[C@H](OC)[C@H]3S2(=O)=O)nc1=O (stereo partly drawn) [Compound 15, 2-(2,5-Dihydro-6-methoxy-2-methyl-5-oxo-1,2,4-triazin-3-yl)thio-4-tert-butylcarbonyl-2,3-dimethyl-7α-methoxy-3-cephem 1,1-dioxide]	1.4e+06 M⁻¹ s⁻¹	–
C=CCC1(Sc2nc(=O)c(OC(c3ccccc3)c3ccccc3)nn2C)C(C)=C(C(=O)C(C)(C)C)N2C(=O)[C@H](OC)[C@H]2S1(=O)=O (stereo partly drawn) [Compound 24, 2-allyl-2-(6-benzhydryloxy-2,5-dihydro-2-methyl-5-oxo-1,2,4-triazin-3-yl)thio-4-tert-butylcarbonyl-7α-methoxy-3-methyl-3-cephem 1,1-dioxide]	93000 M⁻¹ s⁻¹	8 nM
CO[C@H]1C(=O)N2C(C(=O)C(C)(C)C)=C(C)C(Cc3ccccc3)(Sc3nc(=O)c(O)nn3C)S(=O)(=O)[C@H]12 (stereo partly drawn) [Compound 18, 2-Benzyl-2-(2,5-dihydro-6-hydroxy-2-methyl-5-oxo-1,2,4-triazin-3-yl)thio-4-tert-butylcarbonyl-7α-methoxy-3-methyl-3-cephem 1,1-dioxide]	14000 M⁻¹ s⁻¹	16 nM
CO[C@H]1C(=O)N2C(C(=O)C(C)(C)C)=C(C)C(C)(Sc3nc(=O)c(O)nn3C)S(=O)(=O)[C@H]12 (stereo partly drawn) [Compound 12, 2-(2,5-Dihydro-6-hydroxy-2-methyl-5-oxo-1,2,4-triazin-3-yl)thio-4-tert-butylcarbonyl-2,3-dimethyl-7α-methoxy-3-cephem 1,1-dioxide]	37000 M⁻¹ s⁻¹	30 nM
C=CCC1(Sc2nnnn2C)C(C)=C(C(=O)C(C)(C)C)N2C(=O)[C@H](OC)[C@H]2S1(=O)=O (stereo partly drawn) [Compound 7, 2-Allyl-4-tert-butylcarbonyl-7α-methoxy-3-methyl-2-(1-methyl-1,2,3,4-tetrazol-5-yl)thio-3-cephem 1,1-dioxide]	360000 M⁻¹ s⁻¹	3 nM
CO[C@H]1C(=O)N2C(C(=O)C(C)(C)C)=C(C)C(C)(Sc3nc(=O)c(OC(c4ccccc4)c4ccccc4)nn3C)S(=O)(=O)[C@H]12 (stereo partly drawn) [Compound 11, 2-(6-Benzhydryloxy-2-methyl-5-oxo-2,5-dihydro-1,2,4-triazin-3-yl)thio-4-tert-butylcarbonyl-2,3-dimethyl-7α-methoxy-3-cephem 1,1-dioxide]	1.3e+07 M⁻¹ s⁻¹	< 1 nM
CO[C@H]1C(=O)N2C(C(=O)C(C)(C)C)=C(C)C(Cc3ccccc3)(Sc3nnnn3C)S(=O)(=O)[C@H]12 (stereo partly drawn) [Compound 10, 2-Benzyl-4-tert-butylcarbonyl-7α-methoxy-3-methyl-2-(1-methyl-1,2,3,4-tetrazol-5-yl)thio-3-cephem 1,1-dioxide]	110000 M⁻¹ s⁻¹	4 nM

The remaining lines, values ahead:

kinact/KI	Ki	SMILES
77000 M⁻¹ s⁻¹	1 nM	CO[C@H]1C(=O)N2C(C(=O)C(C)(C)C)=C(C)C(Cc3ccc(C(=O)OC(c4ccccc4)c4ccccc4)cc3)(Sc3nnnn3C)S(=O)(=O)[C@H]12 (stereo partly drawn) [Compound 30, 2-(4-benzhydryloxycarbonylbenzyl)-4-tert-Butylcarbonyl-7α-methoxy-3-methyl-2-(1-methyl-1,2,3,4-tetrazol-5-yl)thio-3-cephem1,1-dioxide]
200000 M⁻¹ s⁻¹	7 nM	CO[C@H]1C(=O)N2C(C(=O)C(C)(C)C)=C(C)C(Cc3ccc(C(=O)O)cc3)(Sc3nnnn3C)S(=O)(=O)[C@H]12 (stereo partly drawn) [Compound 32, 4-tert-Butylcarbonyl-2-(4-carboxybenzyl)-7α-methoxy-3-methyl-2-(1-methyl-1,2,3,4-tetrazol-5-yl)thio-3-cephem 1,1-dioxide]
560000 M⁻¹ s⁻¹	1.3 nM	C=CCOC(=O)c1ccc(CC2(Sc3nnnn3C)C(C)=C(C(=O)C(C)(C)C)N3C(=O)[C@H](OC)[C@H]3S2(=O)=O)cc1 (stereo partly drawn) [Compound 31, 2-(4-allyloxycarbonylbenzyl)-4-tert-butylcarbonyl-7α-methoxy-3-methyl-2-(1-methyl-1,2,3,4-tetrazol-5-yl)thio-3-cephem 1,1-dioxide]
1.4e+06 M⁻¹ s⁻¹	3 nM	CO[C@H]1C(=O)N2C(C(=O)C(C)(C)C)=C(CSc3nnnn3C)C(C)(Sc3nnnn3C)S(=O)(=O)[C@H]12 (stereo partly drawn) [Compound 28, 4-tert-Butylcarbonyl-7α-methoxy-2-methyl-2-(1-methyl-1,2,3,4-tetrazol-5-yl)thio-3-(1-methyl-1,2,3,4-tetrazol-5-yl)thiomethyl-3-cephem 1,1-dioxide]
1500 M⁻¹ s⁻¹	–	CO[C@H]1C(=O)N2C(C(=O)N3CCCC3)=C(CSc3nc(=O)c(O)nn3C)CS(=O)(=O)[C@H]12 [Ref. 3, reference compound]
160000 M⁻¹ s⁻¹	4 nM	CO[C@H]1C(=O)N2C(C(=O)C(C)(C)C)=C(C)C(Cc3ccccc3)(Sc3nc(=O)c(OCc4ccccc4)nn3C)S(=O)(=O)[C@H]12 (stereo partly drawn) [Compound 46, 2-Benzyl-2-(6-benzyloxy-2,5-dihydro-2-methyl-5-oxo-1,2,4-triazin-3-yl)thio-4-tert-butylcarbonyl-7α-methoxy-3-methyl-3-cephem 1,1-dioxide]
–	93 nM	CO[C@H]1C(=O)N2C(C(=O)C(C)(C)C)=C(CSc3nnnn3C)C(Sc3nnnn3C)S(=O)(=O)C12 (some centres unmarked) [Ref. 2, reference compound]
